How the values were obtained:
[1] = target: GST-Bcl-XL (Homo sapiens, UniProt Q07817); test: TR-FRET binding assay, GST-Bcl-XL with F-Bak peptide probe; details: TR-FRET Binding Affinity, GST-Bcl-XL, F-Bak peptide probe
Method in brief: (§1)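 Competitive TR-FRET: GST-fusion protein, fluorescent Bak peptide probe and Tb-labelled anti-GST antibody incubated with compound dilution series (starting 50 μM as 2× stock, 10% DMSO) for 3 h at RT. Excitation 340/35 nm; Ki derived via Wang's exact competitive-binding equation.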

[2] = system: FL5.12/Bcl-2 cells; test: FL5.12/Bcl-2 cell viability assay under IL-3 withdrawal (CellTitre Glo); format: cell-based, murine; details: Mus musculus, IL-3 withdrawn 48 hrs, then 24 hrs with compound
Method in brief: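 Viability measured with CellTiter-Glo after 24 h compound treatment at various concentrations, following 48 h IL-3 withdrawal (no WEHI-3B medium). Cells: prolymphocytic mouse FL5.12 line stably transfected to overexpress Bcl-2, cultured at 37 °C, 5% CO2.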

[3] = target: GST-Bcl-2 (Homo sapiens, UniProt P10415); test: TR-FRET binding assay, GST-Bcl-2 with F-Bak peptide probe; details: TR-FRET Binding Affinity, GST-Bcl-2, F-Bak peptide probe
Sequence of GST-Bcl-2 (P10415 whole entry): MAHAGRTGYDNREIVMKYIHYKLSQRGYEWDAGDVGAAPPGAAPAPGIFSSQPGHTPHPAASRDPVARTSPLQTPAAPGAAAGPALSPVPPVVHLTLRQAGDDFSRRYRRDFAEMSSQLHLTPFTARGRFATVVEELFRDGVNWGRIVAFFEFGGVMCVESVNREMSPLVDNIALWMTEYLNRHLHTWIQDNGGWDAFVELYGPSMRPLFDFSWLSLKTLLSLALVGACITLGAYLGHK
Method in brief: as §1

Sequence of GST-Bcl-XL (Q07817 whole entry, the tested form may be a part): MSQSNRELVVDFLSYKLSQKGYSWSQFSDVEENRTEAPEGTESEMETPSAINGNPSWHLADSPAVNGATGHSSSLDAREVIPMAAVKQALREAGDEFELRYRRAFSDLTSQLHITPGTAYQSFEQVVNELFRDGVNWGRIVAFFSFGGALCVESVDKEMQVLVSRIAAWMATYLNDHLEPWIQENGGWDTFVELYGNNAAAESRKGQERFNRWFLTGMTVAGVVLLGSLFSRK

| Structure (SMILES) | Ki [1] | EC50 [2] | Ki [3] |
| --- | --- | --- | --- |
| CN1CC(Nc2ccc(S(=O)(=O)NC(=O)c3ccc(N4CCN(CC5=C(c6ccc(Cl)cc6)CC(C)(C)CC5)CC4)cc3Oc3ccc4[nH]ccc4c3)cc2[N+](=O)[O-])CCC1=O (stereo not drawn) [Example 282, 4-(4-{[2-(4-chlorophenyl)-4,4-dimethylcyclohex-1-en-1-yl]methyl}piperazin-1-yl)-2-(1H-indol-5-yloxy)-N-({4-[(1-methyl-6-oxopiperidin-3-yl)amino]-3-nitrophenyl}sulfonyl)benzamide] | 562 nM | 92.2 nM | 0.164 nM |
| CC1(C)CCC(CN2CCN(c3ccc(C(=O)NS(=O)(=O)c4ccc(NN5CCCCC5)c([N+](=O)[O-])c4)c(Oc4cccc5[nH]ccc45)c3)CC2)=C(c2ccc(Cl)cc2)C1 [Example 283, 4-(4-{[2-(4-chlorophenyl)-4,4-dimethylcyclohex-1-en-1-yl]methyl}piperazin-1-yl)-2-(1H-indol-4-yloxy)-N-{[3-nitro-4-(piperidin-1-ylamino)phenyl]sulfonyl}benzamide] | > 660 nM | > 500 nM | 47.5 nM |
| CC1(C)CCC(CN2CCN(c3ccc(C(=O)NS(=O)(=O)c4ccc(NN5CCCCC5)c([N+](=O)[O-])c4)c(Oc4ccc5[nH]ccc5c4)c3)CC2)=C(c2ccc(Cl)cc2)C1 [Example 284, 4-(4-{[2-(4-chlorophenyl)-4,4-dimethylcyclohex-1-en-1-yl]methyl}piperazin-1-yl)-2-(1H-indol-5-yloxy)-N-{[3-nitro-4-(piperidin-1-ylamino)phenyl]sulfonyl}benzamide] | > 660 nM | > 500 nM | 1.55 nM |
| Cn1ncc(-c2ccc(Cl)cc2)c1CN1CCN(c2ccc(C(=O)NS(=O)(=O)c3ccc(NCC4CCOCC4)c([N+](=O)[O-])c3)c(Oc3ccc4[nH]ccc4c3)c2)CC1 [Example 285, 4-(4-{[4-(4-chlorophenyl)-1-methyl-1H-pyrazol-5-yl]methyl}piperazin-1-yl)-2-(1H-indol-5-yloxy)-N-({3-nitro-4-[(tetrahydro-2H-pyran-4-ylmethyl)amino]phenyl}sulfonyl)benzamide] | > 660 nM | > 500 nM | 6.99 nM |
| CC1(C)CCC(CN2CCN(c3ccc(C(=O)NS(=O)(=O)c4ccc(OCC5(C)COC5)c([N+](=O)[O-])c4)c(Oc4ccc5[nH]ccc5c4)c3)CC2)=C(c2ccc(Cl)cc2)C1 [Example 286, 4-(4-{[2-(4-chlorophenyl)-4,4-dimethylcyclohex-1-en-1-yl]methyl}piperazin-1-yl)-2-(1H-indol-5-yloxy)-N-({4-[(3-methyloxetan-3-yl)methoxy]-3-nitrophenyl}sulfonyl)benzamide] | > 660 nM | 279 nM | 0.567 nM |
| CC1(C)CCC(CN2CCN(c3ccc(C(=O)NS(=O)(=O)c4ccc(NCc5cncs5)c([N+](=O)[O-])c4)c(Oc4ccc5[nH]ccc5c4)c3)CC2)=C(c2ccc(Cl)cc2)C1 [Example 288, 4-(4-{[2-(4-chlorophenyl)-4,4-dimethylcyclohex-1-en-1-yl]methyl}piperazin-1-yl)-2-(1H-indol-5-yloxy)-N-({3-nitro-4-[(1,3-thiazol-5-ylmethyl)amino]phenyl}sulfonyl)benzamide] | > 660 nM | 64.3 nM | 0.177 nM |
| CC1(C)CCC(CN2CCN(c3ccc(C(=O)NS(=O)(=O)c4ccc(OCC5CCOCC5)c([N+](=O)[O-])c4)c(Oc4cccc5[nH]ccc45)c3)CC2)=C(c2ccc(Cl)cc2)C1 [Example 289, 4-(4-{[2-(4-chlorophenyl)-4,4-dimethylcyclohex-1-en-1-yl]methyl}piperazin-1-yl)-2-(1H-indol-4-yloxy)-N-{[3-nitro-4-(tetrahydro-2H-pyran-4-ylmethoxy)phenyl]sulfonyl}benzamide] | > 660 nM | 27.4 nM | 0.112 nM |
| CC1(C)CCC(c2ccc(Cl)cc2)=C(CN2CCN(c3ccc(C(=O)NS(=O)(=O)c4ccc(NCC5CCOCC5)c([N+](=O)[O-])c4)c(Oc4ccc5[nH]ccc5c4)c3)CC2)C1 [Example 290, 4-(4-{[2-(4-chlorophenyl)-5,5-dimethylcyclohex-1-en-1-yl]methyl}piperazin-1-yl)-2-(1H-indol-5-yloxy)-N-({3-nitro-4-[(tetrahydro-2H-pyran-4-ylmethyl)amino]phenyl}sulfonyl)benzamide] | > 660 nM | 44.7 nM | 0.365 nM |
| CC1(C)CCC(CN2CCN(c3ccc(C(=O)NS(=O)(=O)c4ccc(NCCC5CCOCC5)c([N+](=O)[O-])c4)c(Oc4ccc5[nH]ccc5c4)c3)CC2)=C(c2ccc(Cl)cc2)C1 [Example 291, 4-(4-{[2-(4-chlorophenyl)-4,4-dimethylcyclohex-1-en-1-yl]methyl}piperazin-1-yl)-2-(1H-indol-5-yloxy)-N-({3-nitro-4-[(2-tetrahydro-2H-pyran-4-ylethyl)amino]phenyl}sulfonyl)benzamide] | > 660 nM | 58 nM | 0.56 nM |
| CC1(C)CCC(CN2CCN(c3ccc(C(=O)NS(=O)(=O)c4ccc(NCCOC(F)(F)F)c([N+](=O)[O-])c4)c(Oc4cccc5[nH]ccc45)c3)CC2)=C(c2ccc(Cl)cc2)C1 [Example 292, 4-(4-{[2-(4-chlorophenyl)-4,4-dimethylcyclohex-1-en-1-yl]methyl}piperazin-1-yl)-2-(1H-indol-4-yloxy)-N-[(3-nitro-4-{[2-(trifluoromethoxy)ethyl]amino}phenyl)sulfonyl]benzamide] | > 660 nM | 69.2 nM | 0.598 nM |
| COCCOCCNc1ccc(S(=O)(=O)NC(=O)c2ccc(N3CCN(CC4=C(c5ccc(Cl)cc5)CC(C)(C)CC4)CC3)cc2Oc2cccc3[nH]ccc23)cc1[N+](=O)[O-] [Example 293, 4-(4-{[2-(4-chlorophenyl)-4,4-dimethylcyclohex-1-en-1-yl]methyl}piperazin-1-yl)-2-(1H-indol-4-yloxy)-N-[(4-{[2-(2-methoxyethoxy)ethyl]amino}-3-nitrophenyl)sulfonyl]benzamide] | 260 nM | 68.1 nM | 0.516 nM |
| CC1(C)CCC(CN2CCN(c3ccc(C(=O)NS(=O)(=O)c4ccc(NCCCS(C)(=O)=O)c([N+](=O)[O-])c4)c(Oc4cccc5[nH]ccc45)c3)CC2)=C(c2ccc(Cl)cc2)C1 [Example 294, 4-(4-{[2-(4-chlorophenyl)-4,4-dimethylcyclohex-1-en-1-yl]methyl}piperazin-1-yl)-2-(1H-indol-4-yloxy)-N-[(4-{[3-(methylsulfonyl)propyl]amino}-3-nitrophenyl)sulfonyl]benzamide] | 65.1 nM | 59.8 nM | 0.258 nM |
| CC1(C)CCC(CN2CCN(c3ccc(C(=O)NS(=O)(=O)c4ccc(NCCCN5CCS(=O)(=O)CC5)c([N+](=O)[O-])c4)c(Oc4cccc5[nH]ccc45)c3)CC2)=C(c2ccc(Cl)cc2)C1 [Example 295, 4-(4-{[2-(4-chlorophenyl)-4,4-dimethylcyclohex-1-en-1-yl]methyl}piperazin-1-yl)-N-[(4-{[3-(1,1-dioxidothiomorpholin-4-yl)propyl]amino}-3-nitrophenyl)sulfonyl]-2-(1H-indol-4-yloxy)benzamide] | 110 nM | 46.3 nM | 0.183 nM |
| CC1(C)CCC(CN2CCN(c3ccc(C(=O)NS(=O)(=O)c4ccc(CCC5CCOCC5)c([N+](=O)[O-])c4)c(Oc4ccc5[nH]ccc5c4)c3)CC2)=C(c2ccc(Cl)cc2)C1 [Example 296, 4-(4-{[2-(4-chlorophenyl)-4,4-dimethylcyclohex-1-en-1-yl]methyl}piperazin-1-yl)-2-(1H-indol-5-yloxy)-N-{[3-nitro-4-(2-tetrahydro-2H-pyran-4-ylethyl)phenyl]sulfonyl}benzamide] | > 660 nM | 182 nM | 0.651 nM |
| COCCOCCNc1ccc(S(=O)(=O)NC(=O)c2ccc(N3CCN(CC4=C(c5ccc(Cl)cc5)CC(C)(C)CC4)CC3)cc2Oc2ccc3[nH]ccc3c2)cc1[N+](=O)[O-] [Example 298, 4-(4-{[2-(4-chlorophenyl)-4,4-dimethylcyclohex-1-en-1-yl]methyl}piperazin-1-yl)-2-(1H-indol-5-yloxy)-N-[(4-{[2-(2-methoxyethoxy)ethyl]amino}-3-nitrophenyl)sulfonyl]benzamide] | 446 nM | 19.5 nM | 0.315 nM |
| CC1(C)CCC(CN2CCN(c3ccc(C(=O)NS(=O)(=O)c4ccc(NC5CCS(=O)(=O)C5)c([N+](=O)[O-])c4)c(Oc4cccc5[nH]ccc45)c3)CC2)=C(c2ccc(Cl)cc2)C1 (stereo not drawn) [Example 299, 4-(4-{[2-(4-chlorophenyl)-4,4-dimethylcyclohex-1-en-1-yl]methyl}piperazin-1-yl)-N-({4-[(1,1-dioxidotetrahydrothien-3-yl)amino]-3-nitrophenyl}sulfonyl)-2-(1H-indol-4-yloxy)benzamide] | 246 nM | 77.2 nM | 0.425 nM |
| CC1(C)CCC(CN2CCN(c3ccc(C(=O)NS(=O)(=O)c4ccc(NCC5CCS(=O)(=O)CC5)c([N+](=O)[O-])c4)c(Oc4cccc5[nH]ccc45)c3)CC2)=C(c2ccc(Cl)cc2)C1 [Example 301, 4-(4-{[2-(4-chlorophenyl)-4,4-dimethylcyclohex-1-en-1-yl]methyl}piperazin-1-yl)-N-[(4-{[(1,1-dioxidotetrahydro-2H-thiopyran-4-yl)methyl]amino}-3-nitrophenyl)sulfonyl]-2-(1H-indol-4-yloxy)benzamide] | > 660 nM | 59.5 nM | 0.291 nM |
